From US20260297031A1, “HYDROXYLAMINE-BASED BCR-ABL1 INHIBITORS FOR TREATMENT OF CANCER” (University of Georgia Research Foundation, Inc., priority 2023, published 2026) come the findings set out here.

Series [1] has as its system Caco-2 cells. Briefly: Caco-2 permeability. Particulars: Papp (b − a/a − b). Here is the method: Caco-2 Permeability (Independently Performed by Pharmaron Inc., Ningbo, CN)
To each well of the Transwell insert and reservoir were added 50 μL and 25 mL of cell culture medium, respectively. […] Following this, the Caco-2 plate was removed from the incubator and the monolayer washed twice with pre-warmed HBSS (10 mM HEPES, pH 7.4).
To determine the rate of drug transport in the apical to basolateral direction, 125 μL of the working solution of either test compounds or control compounds was added to the Transwell insert (apical compartment) and a 50 μL sample was immediately transported from the apical compartment to 200 μL of acetonitrile containing internal standard (100 nM alprazolam, 200 nM Caffeine and 100 nM tolbutamide) in a new 96-well plate as the initial donor sample (A-B). The sample was then vortexed at 1,000 rpm for 10 min. The receiver plate (basolateral compartment) wells were then filled with 235 μL of transport buffer. To determine the rate of drug transport in the basolateral to apical direction, 285 μL of the working solution of either test compounds or control compounds was added to the receiver plate wells (basolateral compartment) and a 50 μL sample was immediately transferred from the basolateral compartment to 200 μL of acetonitrile containing internal standard in a new 96-well plate as the initial donor sample (B-A). The sample was vortexed at 1,000 rpm for 10 min. The Transwell insert (apical compartment) was then filled with 75 μL of transport buffer and the apical to basolateral direction and the basolateral to apical direction were done at the same time. […] After incubation, 50 μL samples from donor sides (apical compartment for Ap→BI flux, and basolateral compartment for BI→Ap) and receiver sides (basolateral compartment for Ap→BI flux, and apical compartment for BI→Ap) were transferred to wells of a new 96-well plate, followed by the addition of 200 μL acetonitrile containing internal standard. All samples were vortexed for 10 min and then centrifuged at 3,220 g for 40 min. A 150 μL aliquot of the supernatant was then mixed with an appropriate volume of ultra-pure water prior to LC-MS/MS analysis.
To monitor for monolayer integrity, Lucifer yellow leakage was determined after the 2 h transport period. This began by preparing a stock solution of Lucifer yellow in DMSO which was diluted with HBSS (10 mM HEPES, pH 7.4.) to reach a final concentration of 100 μM. To each Transwell insert (apical compartment) was then added 100 μL of the Lucifer yellow solution, followed by filling the wells in the receiver plate (basolateral compartment) with 300 μL of HBSS (10 mM HEPES, pH 7.4).
The efflux ratio was determined using the following equation: […]
On the technique in general: Passage across Caco-2 layers is used to estimate intestinal permeability.

Series [2] is described as follows: Metabolic stability in human hepatocytes. Here is the method:
Metabolic Stability in Hepatocytes (Independently Performed by Pharmaron Inc., Ninqbo, CN)
After thawing was complete, hepatocytes were transferred into a 50 mL conical tube containing thawing medium and the tube was then placed into a centrifuge and spun at 100 g for 10 min. […] Using AO/PI staining, cells were counted to determine the viable cell density. […] Subsequently, 2 μL of the 100 μM test compounds or control compound solutions was transferred into the respective wells of the 96-well non-coated plate to start the reaction. […] Aliquots of 100 μL of the supernatant were then diluted by 100 μL of ultra-pure water, and the mixture was analyzed by LC-MS/MS.
All calculations were carried out using Microsoft Excel. Peak areas were determined from extracted ion chromatograms. The in-vitro half-life (t1/2) of parent compound was determined by regression of the percent parent disappearance vs. time curve.

The subject of series [3] is mutant BCR-ABL1. Kind of series: KinaseProfiler radiometric kinase assay, mutant BCR-ABL1 kinases as a group. In kind it is biochemical, human. Particulars: for IC50: read-out: IC50 against (imatinib resistant / relevant) mutant BCR-ABL1 kinases, group of mutants. The source says:
Biochemical Human RTK Kinase Enzymatic Radiometric Assay, KinaseProfiler (Independently Performed by Eurofins Cerep SA, FR)

For series [4], the target named is cSRC (Homo sapiens, UniProt P12931). Kind of series: KinaseProfiler radiometric kinase assay, cSRC wt. In kind it is biochemical. Particulars: [ATP] = 10 μM; mean of n = 2.
Series [5] has as its target T1, BCR-ABL1 M351T (Homo sapiens, UniProt P00519, M351T).
T1 construct: BCR (fusion partner, as the printed name BCR-ABL1 says)
Briefly: KinaseProfiler radiometric kinase assay, BCR-ABL1 M351T. Conditions: [ATP] = 10 μM; mean of n = 2. In kind it is biochemical.

Series [6] is described as follows: Plasma protein binding by equilibrium dialysis, mouse plasma. In kind it is in vitro ADME, mouse (CD-1). Conditions: 360 min, 5 µM. Here is the method:
Plasma Protein Binding by Equilibrium Dialysis (Independently Performed by Pharmaron Inc., Ninqbo, CN)
Initially, 1 mM solutions of test compounds and the control compound (Ketoconzaole) were prepared in DMSO. After this, dialysis membranes were soaked in ultrapure water for 60 min to separate strips, followed by 20% aq. ethanol for 20 min, and finally in a dialysis buffer for 20 min. […] After this, 597 μL of blank plasma solution followed by 3 μL of the working solutions of either test compounds or control compound were added to a new plastic plate or separate plastic tube and the solutions were vortexed at 1,000 rpm for 2 min. Immediately after this, 50 μL of spiked plasma solution suspension was transferred to a 96-well plate to act as T=0 control. The remaining samples were treated in the same manner, whereby all remaining spiked plasma solutions were added to the incubator for the duration of the study.
Cells were then loaded with 120 μL of the plasma samples and dialyzed against an equal volume of dialysis buffer (PBS). […] The samples were analyzed by LC-MS/MS and 100 μL of distilled water was added to each sample prior to analysis.
Concentrations of test compounds and control compound in buffer and plasma solution chambers was determined and percentages of test compounds and control compound bound using the following equations (mean of n=2 replicates): […]
On the technique in general: In equilibrium dialysis free small molecules cross a membrane that holds back macromolecules.

Sequence of cSRC (P12931 whole entry): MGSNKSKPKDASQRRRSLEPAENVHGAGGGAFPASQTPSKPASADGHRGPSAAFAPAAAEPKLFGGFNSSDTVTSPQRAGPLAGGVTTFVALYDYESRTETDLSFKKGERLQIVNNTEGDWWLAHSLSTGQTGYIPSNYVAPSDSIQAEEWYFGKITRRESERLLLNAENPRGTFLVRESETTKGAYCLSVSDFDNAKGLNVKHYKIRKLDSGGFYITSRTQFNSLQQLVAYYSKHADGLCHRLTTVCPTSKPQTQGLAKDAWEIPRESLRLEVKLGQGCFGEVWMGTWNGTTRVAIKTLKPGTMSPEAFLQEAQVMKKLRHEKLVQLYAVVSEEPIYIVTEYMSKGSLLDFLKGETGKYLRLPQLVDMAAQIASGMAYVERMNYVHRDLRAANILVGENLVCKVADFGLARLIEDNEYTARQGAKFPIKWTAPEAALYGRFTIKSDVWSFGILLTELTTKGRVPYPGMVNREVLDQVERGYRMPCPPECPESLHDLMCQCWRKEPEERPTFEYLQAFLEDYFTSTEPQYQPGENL

`COc1cc(Nc2c(C#N)cnc3cc(OCCON4CCN(C)CC4)c(OC)cc23)c(F)cc1Cl` [Compound 15, 4-((4-chloro-2-fluoro-5-methoxyphenyl)amino)-6-methoxy-7-(2-((4-methylpiperazin-1-yl)oxy)ethoxy)quinoline-3-carbonitrile]: the “Efflux Ratio” value in series [1] turned out to be 6.4. Further, in series [2] (hepatocytes), the share remaining at 0.5 min is 100%, the fraction remaining at 0.5 h worked out at 52.5%, the fraction remaining at 1 h was found to be 29.4% and the amount remaining at 2 h stood at 9.48%. Also, the t1/2 in series [2] (hepatocytes) worked out at 34.2 min. In series [3], the “BCR-ABL1 kinase activity, in words” value is reported as “single-digit nanomolar biochemical activity” and the IC50 was below 1 nM. The IC50 in series [4] is 2 nM. In series [5], the IC50 amounted to 2 nM.
Take `COc1cc2c(Nc3cccc(OC)c3Cl)c(C#N)cnc2cc1OCCON1CCN(C)CC1` [Compound 17, 4-((2-Chloro-3-methoxyphenyl)amino)-6-methoxy-7-(2-((4-methylpiperazin-1-yl)oxy)ethoxy)quinoline-3-carbonitrile]: the “Efflux Ratio” value in series [1] was 3.58. Further, in series [2], the “stability in hepatocytes, in words” value was “good stability in human hepatocytes”. In series [2] (hepatocytes), this compound yielded a fraction remaining at 0.5 min of 100%, an amount remaining at 0.5 h of 80.6%, a share remaining at 1 h of 60.5% and a fraction remaining at 2 h of 35.8%. For the same compound, the “% Unbound” value in series [6] amounted to 11.93%. The IC50 in series [3] is at least 15 nM. The same compound had an IC50 in series [4] of 14 nM. In series [5], this compound displayed an IC50 of 31 nM.
On to `COc1cc(Cl)ccc1Nc1c(C#N)cnc2cc(OCCON3CCN(C)CC3)c(OC)cc12` [Compound 20, 4-((4-Chloro-2-methoxyphenyl)amino)-6-methoxy-7-(2-((4-methylpiperazin-1-yl)oxy)ethoxy)quinoline-3-carbonitrile], for which the “Efflux Ratio” value in series [1] is 6.24. For the same compound, the “stability in hepatocytes, in words” value in series [2] is “good stability in human hepatocytes”. In series [2] (hepatocytes), this compound registered a fraction remaining at 0.5 min of 100%, a fraction remaining at 0.5 h of 63.5%, an amount remaining at 1 h of 43.3% and a share remaining at 2 h of 20.1%. Further, in series [6], the “% Unbound” value came out at 9.71%. The IC50 in series [4] worked out at 11 nM. The compound also returned an IC50 in series [5] of 13 nM.

A word on the fraction remaining: it is what is left of the initial amount, in per cent. Higher therefore signals less turnover.
